Test results from US7902200B2, “Chemical compounds” (AstraZeneca AB, priority 2006, dated 2011).

Experiments:
[1] = target: T1, recombinant human pancreatic GLK (Homo sapiens, UniProt P35557); experiment: GKH1 variant of GLK enzymatic activity assay (manual bench-top rate assay); type: biochemical; conditions: activation of GLK; 60 nmol/l GLK; rate over 5 minute window; no GLKRP
T1 construct: 6-His (N); made in house; host or cells: E. coli BL21
T1 sequence (P35557 1-465): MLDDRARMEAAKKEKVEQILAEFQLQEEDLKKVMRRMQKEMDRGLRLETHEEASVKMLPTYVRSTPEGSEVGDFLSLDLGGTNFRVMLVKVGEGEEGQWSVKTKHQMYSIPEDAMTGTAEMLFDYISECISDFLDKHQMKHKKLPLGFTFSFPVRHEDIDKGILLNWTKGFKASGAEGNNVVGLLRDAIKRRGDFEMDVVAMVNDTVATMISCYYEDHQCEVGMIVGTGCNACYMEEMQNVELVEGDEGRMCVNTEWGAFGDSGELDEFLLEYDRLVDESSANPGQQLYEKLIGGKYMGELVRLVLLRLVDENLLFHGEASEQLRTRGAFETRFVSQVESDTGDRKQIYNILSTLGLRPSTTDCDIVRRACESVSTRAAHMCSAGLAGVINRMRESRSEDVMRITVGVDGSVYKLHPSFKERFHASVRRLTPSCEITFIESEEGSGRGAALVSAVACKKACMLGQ
Protocol: (§1) Enzymatic activity of recombinant human pancreatic GLK may be measured by incubating GLK, ATP and glucose. The rate of product formation may be determined by coupling the assay to a G-6-P dehydrogenase, NADP/NADPH system and measuring the linear increase with time of optical density at 340 nm (Brocklehurst et al (Diabetes 2004, 53, 535-541). Activation of GLK by compounds can be assessed using this assay in the presence or absence of GLKRP as described in Brocklehurst et al (Diabetes 2004, 53, 535-541).
(§2) One or both of two variants of this assay, GKH1 and GKH4, were used to test the compounds of the invention. The GKH1 assay is a manual, bench-top rate assay using 60 nmol/l of recombinant human pancreatic GLK. The GLK activity rate is measured over a 5 minute window using a Multiskan Ascent spectrophotometer. The GKH4 assay is an automated end-point assay using 10 nmol/l of recombinant human pancreatic GLK. The GLK activity is measured at 10 minutes after the initiation of the assay on a Perkin Elmer Envision spectrophotometer.

[2] = target: T1, recombinant human pancreatic GLK; experiment: GKH4 variant of GLK enzymatic activity assay (automated end-point assay); type: biochemical; conditions: activation of GLK; 10 nmol/l GLK; end-point at 10 minutes; no GLKRP
Protocol: as §1, §2

SMILES | EC50 [1] | EC50 [2]
Cc1cnc(NC(=O)c2cc(Oc3ccc4c(c3)OCN(C)C4=O)cc(O[C@H]3CCN(C)C3=O)c2)cn1 [Example 15, 3-[(4-Methyl-5-oxo-2-oxa-4-azabicyclo[4.4.0]deca-6,8,10-trien-9-yl)oxy]-5-(1-methyl-2-oxo-pyrrolidin-3-yl)oxy-N-(5-methylpyrazin-2-yl)benzamide] | 100 nM | 350 nM
Cc1cnc(NC(=O)c2cc(Oc3ccc(C(=O)N4CCC4)nc3)cc(O[C@@H]3CCN(C4CCC4)C3=O)c2)cn1 [Example 20, 3-[6-(Azetidine-1-carbonyl)pyridin-3-yl]oxy-5-[(3R)-1-cyclobutyl-2-oxo-pyrrolidin-3-yl]oxy-N-(5-methylpyrazin-2-yl)benzamide] | 420 nM | 900 nM
Cc1cnc(NC(=O)c2cc(Oc3ccc(C(=O)N4CCC4)nc3)cc(O[C@@H]3CCN(C4CC4)C3=O)c2)cn1 [Example 18, 3-[6-(Azetidine-1-carbonyl)pyridin-3-yl]oxy-5-[(3R)-1-cyclopropyl-2-oxo-pyrrolidin-3-yl]oxy-N-(5-methylpyrazin-2-yl)benzamide] | 3340 nM | 7230 nM
CN1CC[C@H](Oc2cc(Oc3ccc(C(=O)N4CCC4)nc3)cc(C(=O)Nc3cnccn3)c2)C1=O [Example 12, 3-[6-(Azetidine-1-carbonyl)pyridin-3-yl]oxy-5-[(3S)-1-methyl-2-oxo-pyrrolidin-3-yl]oxy-N-pyrazin-2-yl-benzamide] | 300 nM | 430 nM
CN1CC[C@H](Oc2cc(Oc3ccc(C(=O)N4CCC4)nc3)cc(C(=O)Nc3ccccn3)c2)C1=O [Example 13, 3-[6-(Azetidine-1-carbonyl)pyridin-3-yl]oxy-5-[(3S)-1-methyl-2-oxo-pyrrolidin-3-yl]oxy-N-pyridin-2-yl-benzamide] | 430 nM | 170 nM

Further compounds by falling EC50 [1], results first:

EC50 [1] | EC50 [2] | SMILES
2370 nM | 6610 nM | CCN1CC[C@@H](Oc2cc(Oc3ccc(C(=O)N4CCC4)nc3)cc(C(=O)Nc3cnc(C)cn3)c2)C1=O [Example 22, -[6-(Azetidine-1-carbonyl)pyridin-3-yl]oxy-5-[(3R)-1-ethyl-2-oxo-pyrrolidin-3-yl]oxy-N-(5-methylpyrazin-2-yl)benzamide]
150 nM | 570 nM | Cc1cnc(NC(=O)c2cc(Oc3cnc(C(=O)N(C)C)cn3)cc(O[C@H]3CCN(C)C3=O)c2)cn1 [Example 24, N,N-Dimethyl-5-[3-[(3S)-1-methyl-2-oxo-pyrrolidin-3-yl]oxy-5-[(5-methylpyrazin-2-yl)carbamoyl]phenoxy]pyrazine-2-carboxamide]
30 nM | 40 nM | CN1CC[C@H](Oc2cc(Oc3ccc4c(c3)OCCCS4(=O)=O)cc(C(=O)Nc3cc[nH]n3)c2)C1=O [Example 25, 3-[(2,2-Dioxo-6-oxa-2-λ^6-thiabicyclo[5.4.0]undeca-7,9,11-trien-9-yl)oxy]-5-[(3S)-1-methyl-2-oxo-pyrrolidin-3-yl]oxy-N-(1H-pyrazol-3-yl)benzamide]
